Results from patent US8772277B2, “Nitrogen-containing heterocyclic compound” (Takeda Pharmaceutical Company Limited, priority 2011, dated 2014).
Structures can show the parent of a compound that is named as a salt.

Legend:
[1] = biological target: T1, GST-ERR-α ligand-binding domain (Homo sapiens, UniProt P11474); test: HTRF assay system using ERR-α ligand-binding domain (inverse agonist activity, biotinylated SRC-1 (676-700) peptide); type: biochemical; conditions: compound final concentration 30 μM, 665/620 ratio, no compound = 0%, 10 μM XCT-790 = 100%
T1 sequence (P11474 193-421 limits assumed): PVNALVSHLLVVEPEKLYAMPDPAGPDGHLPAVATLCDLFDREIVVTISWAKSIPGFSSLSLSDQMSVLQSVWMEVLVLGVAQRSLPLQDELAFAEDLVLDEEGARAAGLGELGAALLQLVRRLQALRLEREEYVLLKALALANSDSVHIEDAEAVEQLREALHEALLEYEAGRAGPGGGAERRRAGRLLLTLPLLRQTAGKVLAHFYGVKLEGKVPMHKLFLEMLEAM
Method: Experimental Example 1 Compound Evaluation in HTRF Assay System Using ERR-α Ligand-Binding Domain
An assay buffer (25 mM HEPES, 100 mM NaCl, 1 mM DTT, 0.1% BSA) containing 5 nM GST-ERR-α ligand-binding domain (final concentration 1.25 nM) was added to a 384 well plate, then 40 μM N-[5-(trifluoromethyl)-1,3,4-thiadiazol-2-yl]-2-cyano-3-[3-methoxy-4-[2,4-di(trifluoromethyl)benzyloxy]phenyl]propenamide (XCT-790) (final concentration 10 μM), or 120 μM compound (final concentration 30 μM) was added. Furthermore, an assay buffer containing XL665 conjugated Streptavidin, Eu^3+ criptate conjugated GST antibody and 200 nM biotinylated SRC-1 (676-700) (final concentration 100 nM) was added, and the mixture was reacted at room temperature for 2 hr. Using Multiplate reader Envision (Perkin Elmer Inc.), after excitation at 320 nm, fluorescence values at 620 nm and 665 nm were measured. The inverse agonist activity of the compound was calculated in percentage with the 665/620 ratio value inhibited by no addition of compound as 0%, and with addition of final concentration 10 μM of XCT-790 as 100%.

[2] = biological target: T2, fusion protein containing GAL4-DNA-binding domain and ERR full-length (Homo sapiens, UniProt P11474); test: Reporter assay system using 293T cells (GAL4-ERR luciferase, inverse agonist activity); type: cell-based; conditions: compound final concentration 3 μM, no compound = 0%, 10 μM XCT-790 = 100%
T2 construct: expressed in transfected cells; host or cells: 293T cells
T2 sequence (P11474 1-423): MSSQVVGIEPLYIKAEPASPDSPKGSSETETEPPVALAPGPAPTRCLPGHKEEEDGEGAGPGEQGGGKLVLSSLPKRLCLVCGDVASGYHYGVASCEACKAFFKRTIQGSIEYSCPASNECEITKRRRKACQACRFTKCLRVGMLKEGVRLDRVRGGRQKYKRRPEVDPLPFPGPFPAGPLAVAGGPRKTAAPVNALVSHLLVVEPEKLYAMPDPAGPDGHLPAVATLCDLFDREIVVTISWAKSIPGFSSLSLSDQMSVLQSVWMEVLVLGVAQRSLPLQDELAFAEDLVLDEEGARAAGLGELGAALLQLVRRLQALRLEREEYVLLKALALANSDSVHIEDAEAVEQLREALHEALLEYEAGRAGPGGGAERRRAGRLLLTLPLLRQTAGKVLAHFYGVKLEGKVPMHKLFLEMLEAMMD
Method: Experimental Example 2 Compound Evaluation in Reporter Assay System Using 293T Cells
293T cells derived from human kidney were seeded in a 150 cm^2 flask by 6,000,000 cells, and cultured in a medium (DMEM medium containing 10% inactivated Fetal Bovine Serum sterile filtered (FBS), […] Gentamicin, 10 mM HEPES buffer (pH 7.4)) at 37° C. in the presence of 5% CO2 for 1 day.
Then, vector DNA having a gene encoding a fusion protein, containing GAL4-DNA-binding domain and ERR full-length and a vector DNA wherein luciferase gene is fused at the downstream of GAL4-binding-sequence were cotransfected by a lipofection method, and the cells were cultured at 37° C. in the presence of 5% CO2 for 1 day. The cells were recovered, sown in a 384 well plate by 15,000 cells, and cultured at 37° C. in the presence of 5% CO2 for 3 hrs. Furthermore, 50 μM N-[5-(trifluoromethyl)-1,3,4-thiadiazol-2-yl]-2-cyano-3-[3-methoxy-4-[2,4-di(trifluoromethyl)benzyloxy]phenyl]propenamide (XCT-790) (final concentration 10 μM) or 15 μM compound (final concentration 3 μM) was added, and the cells were cultured at 37° C. in the presence of 5% CO2 for 1 day. The luciferase activity was measured by using multiplate reader Envision (Perkin Elmer Inc.). The inverse agonist activity of the compound was calculated in percentage with the luciferase activity inhibited by no addition of compound as 0%, and with addition of final concentration 10 μM of XCT-790 as 100%.

MDA-MB-231-luc cells = test: Antitumor test using MDA-MB-231-luc cells (subcutaneous transplant); type: in vivo, Balb/c nu/nu mice; conditions: 50 mg/kg orally twice per day, change in tumor volume, vehicle group = 100%
Method: Experimental Example 3 Antitumor Test using MDA-MB-231-luc Cells
6-Week-old Balb/c nu/nu mice were transplanted subcutaneously with 5×10^6 cells/100 μL, and the mice were grouped according to the body weight and tumor volume after 1 to 2 weeks. Vehicle (0.5% MC) or a compound was administered orally to mice (6 mice per group). The administration was twice per day and performed continuously during the dosing period. Setting the change in tumor volume of the vehicle-treated group as 100%, the change rate in tumor volume of the compound-treated group (□/C %) was calculated.

| SMILES | inhibition at 30 µM ([1]; read-out: inhibition rate (%) at 30 μM) [%] | inhibition at 3 µM ([2]; HEK-293T, read-out: inhibition rate (%) at 3 μM) [%] | T/C (%) (MDA-MB-231-luc cells; dosing period 14 days) | inhibition rate (%) at 30 μM ([1]; hydrochloride) [%] | inhibition rate (%) at 3 μM ([2]; hydrochloride) [%] | T/C (%) (MDA-MB-231-luc cells; dosing period 17 days) |
| --- | --- | --- | --- | --- | --- | --- |
| CN(C)C(=O)[C@@H](CO)NC1=NC(=O)S/C1=C\C1CCN(Cc2ccc(C(F)(F)F)cc2C(F)(F)F)CC1 [Example 115, N^2-[(5Z)-5-({1-[2,4-bis(trifluoromethyl)benzyl]piperidin-4-yl}methylidene)-2-oxo-2,5-dihydro-1,3-thiazol-4-yl]-N,N-dimethyl-D-serinamide] | 99 | 90 | 55 | – | – | – |
| O=C1N=C(NCCOCCO)/C(=C/C2CCN(Cc3ccc(C(F)(F)F)cc3C(F)(F)F)CC2)S1 [Example 195, (5Z)-5-({1-[2,4-bis(trifluoromethyl)benzyl]piperidin-4-yl}methylidene)-4-{[2-(2-hydroxyethoxy)ethyl]amino}-1,3-thiazol-2(5H)-one hydrochloride] | – | – | – | 102 | 90 | 56 |
